This passage reports melting point results from a melting point compilation (Tetko et al.; mined from patent text by program, amines drawn as free bases though some values may be those of a salt).

The melting point is the temperature, or range, at which the solid turns liquid. `N#Cc1ccc2c(c1)c1cc(C(=N)Nc3cccc(C(F)(F)F)c3)ccc1n2Cc1ccccc1` showed a melting point of 210 to 220 °C.
In turn, `CC(C)n1ccc(-c2ccc([C@H](C)N3CC[C@](CC(C)(C)O)(c4ccccc4)OC3=O)cc2)cc1=O` came in with a melting point of 134 to 139 °C.
Consider `CN(Cc1ccc(NC(=O)C2=Cc3cc(-c4ccc(OC(F)(F)F)cc4)ccc3OCC2)cc1)C1CCOCC1`, for which the melting point lay in the range of 187 to 188 °C.
Regarding `CCCCCCC(C)(C)c1ccc(C2=CCCNC2)c(O)c1`, the melting point was in the range of 122 to 123 °C.
On to `CCc1cccc(-c2ccc(S(=O)(=O)N3c4ccccc4CC3C(=O)NCc3ccc(CC(=O)O)cc3)cc2)c1` (configuration not stated), for which the melting point came out at 98 °C.
`CC(=O)Nc1ncc(CCc2ccc(NC(NC(=O)OC(C)(C)C)NC(=O)OC(C)(C)C)cc2)s1`: the melting point is 203 to 205 °C.
For the molecule `O=c1c2c(Cc3ccc(OC(F)(F)F)cc3)n[nH]c2c2cccnc2n1-c1cccc(OC(F)(F)F)c1`, the melting point was 129 to 132 °C.
